“And” between values parts separate entries of the source, which are not always exact repeats. Equal values may be shown once. Where a SMILES comes first, the peptide text is derived from it. The star is where a group is joined. Cbz = O=C(OCc1ccccc1)*
What was measured:
Assay in all cases: cells
COLO-800 = type: functional, cell-based, Homo sapiens;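 further: growth inhibition of COLO-800 cells, read out with a cell viability assay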
Description: SANGER: Inhibition of human COLO-800 cell growth in a cell viability assay.

COLO-824 = type: functional, cell-based, Homo sapiens
Description: SANGER: Inhibition of human COLO-824 cell growth in a cell viability assay.

COR-L88 = type: functional, cell-based, Homo sapiens;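 further: growth inhibition of COR-L88 cells, read out with a cell viability assay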
Description: SANGER: Inhibition of human COR-L88 cell growth in a cell viability assay.

CW-2 = type: functional, cell-based, Homo sapiens;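 further: growth inhibition of CW-2 cells, read out by a cell viability assay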
Description: SANGER: Inhibition of human CW-2 cell growth in a cell viability assay.

DB = type: functional, cell-based, Homo sapiens
Description: SANGER: Inhibition of human DB cell growth in a cell viability assay.

ES7 = type: functional, cell-based, Homo sapiens;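 further: growth inhibition of cultured human ES7 cells, read out as cell viability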
Description: SANGER: Inhibition of human ES7 cell growth in a cell viability assay.

EW-11 = type: functional, cell-based, Homo sapiens;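 further: growth inhibition of human EW-11 cells, measured with a cell viability assay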
Description: SANGER: Inhibition of human EW-11 cell growth in a cell viability assay.

EW-13 = type: functional, cell-based, Homo sapiens;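 further: growth inhibition of EW-13 cells, read out with a cell viability assay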
Description: SANGER: Inhibition of human EW-13 cell growth in a cell viability assay.

GI-ME-N = type: functional, cell-based, Homo sapiens;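 further: growth inhibition of human GI-ME-N cells, read out with a cell viability assay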
Description: SANGER: Inhibition of human GI-ME-N cell growth in a cell viability assay.

GOTO = type: functional, cell-based, Homo sapiens;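 further: growth inhibition of GOTO cells, read out by a cell viability assay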
Description: SANGER: Inhibition of human GOTO cell growth in a cell viability assay.

GR-ST = type: functional, cell-based, Homo sapiens
Description: SANGER: Inhibition of human GR-ST cell growth in a cell viability assay.

HCC2218 = type: functional, cell-based, Homo sapiens;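 further: cell viability assay read-out, with IC50 given as the concentration that inhibits growth of the cell line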
Description: SANGER: Inhibition of human HCC2218 cell growth in a cell viability assay.

HCE-T = type: functional, cell-based, Homo sapiens;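 further: cell viability assay read-out, reporting inhibition of HCE-T cell growth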
Description: SANGER: Inhibition of human HCE-T cell growth in a cell viability assay.

HD-MY-Z = type: functional, cell-based, Homo sapiens;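 further: growth inhibition of HD-MY-Z cells, read out with a cell viability assay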
Description: SANGER: Inhibition of human HD-MY-Z cell growth in a cell viability assay.

HH = type: functional, cell-based, Homo sapiens
Description: SANGER: Inhibition of human HH cell growth in a cell viability assay.

HT-144 = type: functional, cell-based, Homo sapiens
Description: SANGER: Inhibition of human HT-144 cell growth in a cell viability assay.

K562 = type: functional, cell-based, Homo sapiens
KM-H2 = type: functional, cell-based, Homo sapiens;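 further: growth inhibition of KM-H2 cells, read out by a cell viability assay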
Description: SANGER: Inhibition of human KM-H2 cell growth in a cell viability assay.

KNS-42 = type: functional, cell-based; details: Homo sapiens;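 further: growth inhibition of KNS-42 cells, read out with a cell viability assay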
Description: SANGER: Inhibition of human KNS-42 cell growth in a cell viability assay.

KP-N-YS = type: functional, cell-based, Homo sapiens;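 further: cell viability assay measuring inhibition of cell line growth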
Description: SANGER: Inhibition of human KP-N-YS cell growth in a cell viability assay.

LB2241-RCC = type: functional, cell-based, Homo sapiens;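 further: cell viability assay measuring how strongly the cultured human renal carcinoma line is prevented from growing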
Lu-65 = type: functional, cell-based, Homo sapiens;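 further: growth inhibition of Lu-65 cancer cells, read out by a cell viability assay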
Description: SANGER: Inhibition of human LU-65 cell growth in a cell viability assay.

LXF-289 cell line = type: functional, cell-based; details: Homo sapiens
Description: SANGER: Inhibition of human LXF-289 cell growth in a cell viability assay.

MHH-NB-11 = type: functional, cell-based, Homo sapiens;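 further: growth inhibition of human MHH-NB-11 cells, read out by a cell viability assay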
Description: SANGER: Inhibition of human MHH-NB-11 cell growth in a cell viability assay.

MLMA = type: functional, cell-based, Homo sapiens;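 further: growth inhibition of MLMA cells (human), determined through a cell viability readout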
Description: SANGER: Inhibition of human MLMA cell growth in a cell viability assay.

MMAC-SF = type: functional, cell-based; details: Homo sapiens;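 further: growth inhibition of human MMAC-SF cells, read out with a cell viability assay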
MPP-89 = type: functional, cell-based, Homo sapiens;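 further: growth inhibition of human MPP-89 cells, read out with a cell viability assay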
Description: SANGER: Inhibition of human MPP-89 cell growth in a cell viability assay.

MSTO-211H = type: functional, cell-based, Homo sapiens
Description: SANGER: Inhibition of human MSTO-211H cell growth in a cell viability assay.

NB5 = type: functional, cell-based, Homo sapiens;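 further: growth inhibition of NB5 cells, read out as cell viability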
Description: SANGER: Inhibition of human NB5 cell growth in a cell viability assay.

NCI-H1304 = type: functional, cell-based, Homo sapiens;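 further: growth inhibition of the cancer cell line, measured in a cell viability assay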
Description: SANGER: Inhibition of human NCI-H1304 cell growth in a cell viability assay.

NCI-H1838 = type: functional, cell-based, Homo sapiens;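 further: growth inhibition of NCI-H1838 cells, determined with a cell viability readout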
Description: SANGER: Inhibition of human NCI-H1838 cell growth in a cell viability assay.

NCI-H209 = type: functional, cell-based, Homo sapiens;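 further: growth inhibition of human NCI-H209 cells, measured by a cell viability assay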
Description: SANGER: Inhibition of human NCI-H209 cell growth in a cell viability assay.

NCI-H23 = type: functional, cell-based, Homo sapiens;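 further: cell viability assay measuring growth inhibition of NCI-H23 cells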
Description: SANGER: Inhibition of human NCI-H23 cell growth in a cell viability assay.

NCI-H446 = type: functional, cell-based, Homo sapiens;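 further: growth inhibition of NCI-H446 cells determined by a cell viability assay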
Description: SANGER: Inhibition of human NCI-H446 cell growth in a cell viability assay.

NCI-H747 = type: functional, cell-based, Homo sapiens;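 further: growth inhibition of human NCI-H747 cells, read out by a cell viability assay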
Description: SANGER: Inhibition of human NCI-H747 cell growth in a cell viability assay.

SNU1 = type: functional, cell-based, Homo sapiens;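 further: growth inhibition of human NCI-SNU-1 cells, measured with a cell viability assay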
Description: SANGER: Inhibition of human NCI-SNU-1 cell growth in a cell viability assay.

SNU-5 = type: functional, cell-based, Homo sapiens;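 further: cell viability readout used to measure growth inhibition in human NCI-SNU-5 cells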
Description: SANGER: Inhibition of human NCI-SNU-5 cell growth in a cell viability assay.

NH-12 = type: functional, cell-based, Homo sapiens;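 further: growth inhibition of NH-12 cells, read out with a cell viability assay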
Description: SANGER: Inhibition of human NH-12 cell growth in a cell viability assay.

OMC-1 = type: functional, cell-based, Homo sapiens;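 further: growth inhibition of the OMC-1 cell line, measured by a cell viability assay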
Description: SANGER: Inhibition of human OMC-1 cell growth in a cell viability assay.

OS-RC-2 = type: functional, cell-based, Homo sapiens;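 further: growth inhibition of human OS-RC-2 cells, measured by a cell viability assay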
Description: SANGER: Inhibition of human OS-RC-2 cell growth in a cell viability assay.

RCC10RGB = type: functional, cell-based, Homo sapiens;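 further: growth inhibition of human RCC10RGB cells, read out by a cell viability assay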
Description: SANGER: Inhibition of human RCC10RGB cell growth in a cell viability assay.

SBC-1 = type: functional, cell-based, Homo sapiens;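 further: cell viability assay measuring growth inhibition of the SBC-1 cell line, IC50 being the concentration that halves growth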
Description: SANGER: Inhibition of human SBC-1 cell growth in a cell viability assay.

SF-268 = type: functional, cell-based, Homo sapiens;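 further: growth inhibition of SF-268 cells determined with a cell viability assay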
Description: SANGER: Inhibition of human SF268 cell growth in a cell viability assay.

SJSA-1 = type: functional, cell-based, Homo sapiens;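 further: growth inhibition of human SJSA-1 cells, read out through a cell viability measurement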
Description: SANGER: Inhibition of human SJSA-1 cell growth in a cell viability assay.

SK-MEL-2 = type: functional, cell-based, Homo sapiens;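 further: growth inhibition of human SK-MEL-2 cells measured with a cell viability assay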
Description: SANGER: Inhibition of human SK-MEL-2 cell growth in a cell viability assay.

SW872 = type: functional, cell-based, Homo sapiens;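 further: growth inhibition of SW872 cells, read out by a viability assay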
Description: SANGER: Inhibition of human SW872 cell growth in a cell viability assay.

ALL-PO = type: functional, cell-based, Homo sapiens;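 further: growth inhibition of ALL-PO cells, read out by a cell viability assay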
Description: SANGER: Inhibition of human ALL-PO cell growth in a cell viability assay.

Becker = type: functional, cell-based, Homo sapiens;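 further: growth inhibition of Becker cells, read out with a cell viability assay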
Description: SANGER: Inhibition of human Becker cell growth in a cell viability assay.

CGTH-W-1 = type: functional, cell-based, Homo sapiens;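 further: growth inhibition of human CGTH-W-1 cells measured by cell viability assay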
Description: SANGER: Inhibition of human CGTH-W-1 cell growth in a cell viability assay.

NCI-N87 = type: functional, cell-based; details: Homo sapiens;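 further: growth inhibition of human NCI-N87 cells, read out with a cell viability assay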
Description: SANGER: Inhibition of human NCI-N87 cell growth in a cell viability assay.

Cc1ccc(NC(=O)c2ccc(CN3CCN(C)CC3)cc2)cc1Nc1nccc(-c2cccnc2)n1 [IMATINIB]
IC50 (COLO-800; Homo sapiens, COLO-800): > 2 µM | IC50 (COLO-824; Homo sapiens, COLO-824): > 2 µM | IC50 (COR-L88; Homo sapiens, COR-L88): > 2 µM | IC50 (CW-2; Homo sapiens, CW-2): > 2 µM | IC50 (DB; Homo sapiens, DB): > 2 µM | IC50 (ES7; Homo sapiens, ES7): > 2 µM | IC50 (EW-11; Homo sapiens, EW-11): > 2 µM | IC50 (EW-13; Homo sapiens, EW-13): > 2 µM | IC50 (GI-ME-N; Homo sapiens, GI-ME-N): > 2 µM | IC50 (GOTO; Homo sapiens, GOTO): > 2 µM | IC50 (GR-ST; Homo sapiens, GR-ST): > 2 µM | IC50 (HCC2218; Homo sapiens, HCC2218): > 2 µM | IC50 (HCE-T; Homo sapiens, HCE-T): > 2 µM | IC50 (HD-MY-Z; Homo sapiens, HD-MY-Z): > 2 µM | IC50 (HH; Homo sapiens, HH): > 2 µM | IC50 (HT-144; Homo sapiens, HT-144): > 2 µM | IC50 (K562; Homo sapiens, K562): 0.224 µM | IC50 (KM-H2; Homo sapiens, KM-H2): > 2 µM | IC50 (KNS-42): > 2 µM | IC50 (KP-N-YS; Homo sapiens, KP-N-YS): > 2 µM | IC50 (LB2241-RCC; Homo sapiens, LB2241-RCC): > 2 µM | IC50 (Lu-65; Homo sapiens, Lu-65): > 2 µM | IC50 (LXF-289 cell line): > 2 µM | IC50 (MHH-NB-11; Homo sapiens, MHH-NB-11): > 2 µM | IC50 (MLMA; Homo sapiens, MLMA): > 2 µM | IC50 (MMAC-SF): > 2 µM | IC50 (MPP-89; Homo sapiens, MPP-89): > 2 µM | IC50 (MSTO-211H; Homo sapiens, MSTO-211H): > 2 µM | IC50 (NB5; Homo sapiens, NB5): > 2 µM | IC50 (NCI-H1304; Homo sapiens, NCI-H1304): > 2 µM | IC50 (NCI-H1838; Homo sapiens, NCI-H1838): > 2 µM | IC50 (NCI-H209; Homo sapiens, NCI-H209): > 2 µM | IC50 (NCI-H23; Homo sapiens, NCI-H23): > 2 µM | IC50 (NCI-H446; Homo sapiens, NCI-H446): > 2 µM | IC50 (NCI-H747; Homo sapiens, NCI-H747): > 2 µM | IC50 (SNU1; Homo sapiens, SNU1): > 2 µM | IC50 (SNU-5; Homo sapiens, SNU-5): > 2 µM | IC50 (NH-12; Homo sapiens, NH-12): > 2 µM | IC50 (OMC-1; Homo sapiens, OMC-1): > 2 µM | IC50 (OS-RC-2; Homo sapiens, OS-RC-2): > 2 µM | IC50 (RCC10RGB; Homo sapiens, RCC10RGB): > 2 µM | IC50 (SBC-1; Homo sapiens, SBC-1): > 2 µM | IC50 (SF-268; Homo sapiens, SF-268): > 2 µM | IC50 (SJSA-1; Homo sapiens, SJSA-1): > 2 µM | IC50 (SK-MEL-2; Homo sapiens, SK-MEL-2): > 2 µM | IC50 (SW872; Homo sapiens, SW872): > 2 µM | IC50 (ALL-PO; Homo sapiens, ALL-PO): > 2 µM | IC50 (Becker; Homo sapiens, Becker): > 2 µM | IC50 (CGTH-W-1; Homo sapiens, CGTH-W-1): 0.384 µM

CC(C)C[C@@H](C=O)NC(=O)[C@H](CC(C)C)NC(=O)[C@H](CC(C)C)NC(=O)OCc1ccccc1 [MG-132] (Cbz-Leu-Leu-Leu-aldehyde)
IC50 (COLO-800; colo-800): > 1 µM | IC50 (COLO-824; colo-824): > 1 µM | IC50 (COR-L88; cor-l88): > 1 µM | IC50 (CW-2; cw-2): > 1 µM | IC50 (DB; db): > 1 µM | IC50 (ES7; es7): 0.897 µM and > 1 µM | IC50 (EW-11; ew-11): > 1 µM | IC50 (EW-13; Homo sapiens, EW-13, read-out: IC50): > 1 µM | IC50 (EW-13; ew-13, read-out: IC50): > 1 µM | IC50 (GI-ME-N; gi-me-n): 0.193 µM and > 1 µM | IC50 (GOTO; Homo sapiens, GOTO): > 1 µM | IC50 (GOTO; goto): > 1 µM | IC50 (GR-ST; gr-st): > 1 µM | IC50 (HCC2218; Homo sapiens, HCC2218): > 1 µM | IC50 (HCC2218; hcc2218): > 1 µM | IC50 (HCE-T; hce-t): > 1 µM | IC50 (HD-MY-Z; hd-my-z): 0.233 µM and > 1 µM | IC50 (HH; Homo sapiens, HH): 0.329 µM | IC50 (HH; hh): 0.571 µM | IC50 (HT-144; ht-144): 0.139 µM and 0.334 µM | IC50 (K562; k562): > 1 µM | IC50 (KM-H2; Homo sapiens, KM-H2): > 1 µM | IC50 (KM-H2; km-h2): > 1 µM | IC50 (KP-N-YS; kp-n-ys): > 1 µM | IC50 (LB2241-RCC; lb2241-rcc): 0.142 µM and 0.871 µM | IC50 (Lu-65; lu-65): > 1 µM | IC50 (MHH-NB-11; Homo sapiens, MHH-NB-11): > 1 µM | IC50 (MHH-NB-11; mhh-nb-11): > 1 µM | IC50 (MLMA; mlma): > 1 µM | IC50 (MPP-89; mpp-89): > 1 µM | IC50 (MSTO-211H; msto-211h): > 1 µM | IC50 (NB5; nb5): > 1 µM | IC50 (NCI-H1304; Homo sapiens, NCI-H1304): > 1 µM | IC50 (NCI-H1304; nci-h1304): > 1 µM | IC50 (NCI-H1838; nci-h1838): > 1 µM | IC50 (NCI-H209; nci-h209): > 1 µM | IC50 (NCI-H23; nci-h23): > 1 µM | IC50 (NCI-H446; Homo sapiens, NCI-H446): > 1 µM | IC50 (NCI-H446; nci-h446): > 1 µM | IC50 (NCI-H747; Homo sapiens, NCI-H747): 0.371 µM | IC50 (NCI-H747; nci-h747): 0.713 µM | IC50 (NCI-N87): > 1 µM | IC50 (SNU1; snu1): > 1 µM | IC50 (SNU-5; snu-5): 0.695 µM and > 1 µM | IC50 (NH-12; nh-12): > 1 µM | IC50 (OMC-1; omc-1): > 1 µM | IC50 (OS-RC-2; os-rc-2): 0.48 µM and > 1 µM | IC50 (RCC10RGB; Homo sapiens, RCC10RGB): > 1 µM | IC50 (RCC10RGB; rcc10rgb): > 1 µM | IC50 (SBC-1; Homo sapiens, SBC-1): > 1 µM | IC50 (SBC-1; sbc-1): > 1 µM | IC50 (SF-268; sf-268): 0.656 µM and > 1 µM | IC50 (SJSA-1; Homo sapiens, SJSA-1): > 1 µM | IC50 (SJSA-1; sjsa-1): > 1 µM | IC50 (SK-MEL-2; sk-mel-2): > 1 µM | IC50 (SW872; sw872): 0.657 µM and > 1 µM | IC50 (ALL-PO; all-po): > 1 µM | IC50 (Becker; becker): 0.796 µM and > 1 µM | IC50 (CGTH-W-1; cgth-w-1): > 1 µM
